From ChEMBL document CHEMBL6182830, “Hepatocyte targeting via the asialoglycoprotein receptor” (RSC Med Chem, 2025)
pKd: −log10 of the molar value.

Experiment: Binding affinity to human ASGR assessed as dissociation constant by SPR analysis

| Structure (SMILES) | pKd |
| --- | --- |
| CC(=O)N[C@@H]1[C@@H](O)[C@@H](O)[C@@H](CO)O[C@H]1C | 4.39 |
| CC(=O)N[C@H]1[C@H]2OC[C@](CO)(O2)[C@H](O)[C@@H]1O | 5.14 |
| CO[C@@H]1O[C@H](CO)[C@H](O)[C@H](O)[C@H]1O | 3.06 |
| CC(=O)N[C@@H]1[C@@H](O)[C@@H](O)[C@@H](CO)O[C@H]1O | 4.39 |
| C[C@@H]1O[C@H](CO)[C@H](O)[C@H](O)[C@H]1NC(=O)C(F)(F)F | 4.83 |

The next molecules have a higher pKd than those just listed; values first:

| pKd | Structure (SMILES) |
| --- | --- |
| 5.74 | O=C(N[C@H]1[C@H]2OC[C@](CO)(O2)[C@H](O)[C@@H]1O)C(F)(F)F |
| 5.80 | C=CCO[C@H]1O[C@H](CN=[N+]=[N-])[C@H](O)[C@H](O)[C@H]1NC(C)=O |
| 5.92 | COc1cccc(-n2cc(C[C@H]3O[C@H](OCC(O)CNCc4ccccc4)[C@H](NC(=O)C(F)(F)F)[C@@H](O)[C@H]3O)nn2)c1 (stereo partly drawn) |
